Read-outs that look alike come from different tables or passages of the source.
How the values were obtained:
Assay type in all cases: cell-based
[1] = molecular target: T1, protein kinases (human kinome) (Homo sapiens, UniProt O95835); conditions: LATS1 O95835; experiment wp071
T1 sequence (O95835 1-1130): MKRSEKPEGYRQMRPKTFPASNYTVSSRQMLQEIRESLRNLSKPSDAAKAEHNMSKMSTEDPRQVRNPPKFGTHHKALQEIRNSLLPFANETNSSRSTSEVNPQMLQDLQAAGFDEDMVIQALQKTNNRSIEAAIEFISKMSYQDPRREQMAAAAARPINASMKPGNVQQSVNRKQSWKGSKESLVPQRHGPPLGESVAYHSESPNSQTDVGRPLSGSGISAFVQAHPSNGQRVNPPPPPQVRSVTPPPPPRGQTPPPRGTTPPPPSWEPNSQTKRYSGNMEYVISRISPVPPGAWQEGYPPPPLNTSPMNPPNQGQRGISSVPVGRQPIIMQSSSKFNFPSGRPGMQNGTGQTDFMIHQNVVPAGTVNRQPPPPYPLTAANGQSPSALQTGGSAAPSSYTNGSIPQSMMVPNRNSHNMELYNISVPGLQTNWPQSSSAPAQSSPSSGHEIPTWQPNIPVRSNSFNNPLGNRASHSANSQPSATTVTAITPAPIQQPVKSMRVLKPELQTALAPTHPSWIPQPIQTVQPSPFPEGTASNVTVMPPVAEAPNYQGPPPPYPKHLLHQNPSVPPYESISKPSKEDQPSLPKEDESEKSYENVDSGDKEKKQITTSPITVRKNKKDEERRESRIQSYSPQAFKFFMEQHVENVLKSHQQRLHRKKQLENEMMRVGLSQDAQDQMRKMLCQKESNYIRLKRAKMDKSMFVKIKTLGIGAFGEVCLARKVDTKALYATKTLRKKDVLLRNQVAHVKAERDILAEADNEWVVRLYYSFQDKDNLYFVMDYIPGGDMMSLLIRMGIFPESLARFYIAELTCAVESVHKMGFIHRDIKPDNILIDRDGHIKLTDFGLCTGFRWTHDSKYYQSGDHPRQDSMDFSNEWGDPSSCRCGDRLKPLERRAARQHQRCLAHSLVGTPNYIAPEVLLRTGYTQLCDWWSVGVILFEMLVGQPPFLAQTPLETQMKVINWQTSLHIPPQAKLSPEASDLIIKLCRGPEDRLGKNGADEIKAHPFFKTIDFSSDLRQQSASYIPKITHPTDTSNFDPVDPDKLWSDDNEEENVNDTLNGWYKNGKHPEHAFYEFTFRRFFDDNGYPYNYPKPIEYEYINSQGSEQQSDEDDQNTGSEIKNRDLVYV

[2] = molecular target: protein kinases (human kinome) (Homo sapiens, UniProt P41240); conditions: experiment wp071
protein kinases (human kinome) (Homo sapiens, UniProt P41240), sequence (P41240 whole entry): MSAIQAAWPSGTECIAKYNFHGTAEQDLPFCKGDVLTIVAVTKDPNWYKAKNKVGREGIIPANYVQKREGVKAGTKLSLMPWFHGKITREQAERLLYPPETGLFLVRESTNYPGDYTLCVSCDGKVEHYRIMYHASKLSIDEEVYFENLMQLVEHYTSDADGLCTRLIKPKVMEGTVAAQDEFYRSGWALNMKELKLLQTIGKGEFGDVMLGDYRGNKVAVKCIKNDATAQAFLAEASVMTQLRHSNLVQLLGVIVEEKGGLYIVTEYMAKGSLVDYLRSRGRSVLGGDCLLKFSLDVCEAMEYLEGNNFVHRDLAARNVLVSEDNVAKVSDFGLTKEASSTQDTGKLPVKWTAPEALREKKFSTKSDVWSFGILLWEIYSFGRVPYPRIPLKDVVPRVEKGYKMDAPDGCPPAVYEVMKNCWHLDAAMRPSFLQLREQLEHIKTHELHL

[3] = molecular target: protein kinases (human kinome) (Homo sapiens, UniProt P42684)
[4] = molecular target: protein kinases (human kinome) (Homo sapiens, UniProt P49674); conditions: CSNK1E P49674; experiment wp071
protein kinases (human kinome) (Homo sapiens, UniProt P49674), sequence (P49674 whole entry): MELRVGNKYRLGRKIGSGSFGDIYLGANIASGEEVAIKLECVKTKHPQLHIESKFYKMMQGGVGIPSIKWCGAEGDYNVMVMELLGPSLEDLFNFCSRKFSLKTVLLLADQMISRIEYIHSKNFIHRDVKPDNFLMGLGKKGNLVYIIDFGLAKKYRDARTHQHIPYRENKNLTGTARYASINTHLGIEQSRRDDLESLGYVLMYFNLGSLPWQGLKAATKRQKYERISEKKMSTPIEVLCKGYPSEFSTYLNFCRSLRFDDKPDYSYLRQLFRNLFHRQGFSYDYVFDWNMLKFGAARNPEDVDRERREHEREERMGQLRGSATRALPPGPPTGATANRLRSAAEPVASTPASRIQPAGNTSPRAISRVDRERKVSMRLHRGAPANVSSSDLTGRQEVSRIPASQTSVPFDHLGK

[5] = molecular target: protein kinases (human kinome) (Homo sapiens, UniProt P51451)
[6] = molecular target: protein kinases (human kinome) (Homo sapiens, UniProt P53667); conditions: LIMK1 (P53667-1)
protein kinases (human kinome) (Homo sapiens, UniProt P53667), sequence (P53667 whole entry): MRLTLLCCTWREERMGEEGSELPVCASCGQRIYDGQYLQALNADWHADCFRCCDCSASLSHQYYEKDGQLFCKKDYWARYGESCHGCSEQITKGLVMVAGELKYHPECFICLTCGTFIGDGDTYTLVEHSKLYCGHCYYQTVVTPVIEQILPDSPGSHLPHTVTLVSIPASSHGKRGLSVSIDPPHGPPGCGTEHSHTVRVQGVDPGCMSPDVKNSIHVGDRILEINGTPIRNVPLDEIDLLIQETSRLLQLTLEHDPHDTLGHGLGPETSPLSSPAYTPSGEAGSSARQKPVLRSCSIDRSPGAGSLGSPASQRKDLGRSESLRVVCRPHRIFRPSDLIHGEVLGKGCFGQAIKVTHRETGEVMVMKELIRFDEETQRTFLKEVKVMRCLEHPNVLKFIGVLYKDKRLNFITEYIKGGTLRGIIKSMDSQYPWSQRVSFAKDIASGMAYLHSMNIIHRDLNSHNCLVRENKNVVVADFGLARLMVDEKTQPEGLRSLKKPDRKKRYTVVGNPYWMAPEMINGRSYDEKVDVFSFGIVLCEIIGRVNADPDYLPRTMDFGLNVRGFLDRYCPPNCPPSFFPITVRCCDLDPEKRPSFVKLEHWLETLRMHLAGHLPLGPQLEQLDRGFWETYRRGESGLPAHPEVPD

[7] = molecular target: T2, protein kinases (human kinome) (Homo sapiens, UniProt Q13163); conditions: experiment wp071
T2 sequence (Q13163 1-448): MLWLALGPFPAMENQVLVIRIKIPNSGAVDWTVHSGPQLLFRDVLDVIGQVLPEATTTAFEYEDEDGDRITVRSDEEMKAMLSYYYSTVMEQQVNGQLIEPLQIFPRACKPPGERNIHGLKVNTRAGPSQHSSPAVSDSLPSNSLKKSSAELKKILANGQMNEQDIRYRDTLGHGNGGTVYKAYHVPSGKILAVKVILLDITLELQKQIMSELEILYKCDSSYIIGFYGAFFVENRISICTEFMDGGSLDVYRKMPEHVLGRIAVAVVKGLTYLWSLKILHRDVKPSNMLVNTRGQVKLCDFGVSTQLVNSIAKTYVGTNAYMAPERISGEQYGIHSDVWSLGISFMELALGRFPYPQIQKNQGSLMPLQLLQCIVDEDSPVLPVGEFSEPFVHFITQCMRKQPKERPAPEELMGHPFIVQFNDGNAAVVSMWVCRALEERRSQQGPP

[8] = tested on: protein kinases (human kinome); conditions: for logFC MAPK8 (P45983-4): direction down; for logFC MAPK8: MAPK8 P45983-4
[9] = molecular target: protein kinases (human kinome) (Homo sapiens, UniProt O60307); conditions: experiment wp081
[10] = molecular target: protein kinases (human kinome) (Homo sapiens, UniProt P11802)
protein kinases (human kinome) (Homo sapiens, UniProt P11802), sequence (P11802 whole entry): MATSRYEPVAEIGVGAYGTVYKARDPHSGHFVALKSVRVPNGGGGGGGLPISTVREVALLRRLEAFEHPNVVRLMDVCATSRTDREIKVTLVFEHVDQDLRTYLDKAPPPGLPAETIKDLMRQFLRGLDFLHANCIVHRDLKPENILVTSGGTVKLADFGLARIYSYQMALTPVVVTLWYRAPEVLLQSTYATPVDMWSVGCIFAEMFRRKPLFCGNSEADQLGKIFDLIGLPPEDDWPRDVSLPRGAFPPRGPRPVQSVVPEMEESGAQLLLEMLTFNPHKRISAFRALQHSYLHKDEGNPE

[11] = molecular target: protein kinases (human kinome) (Homo sapiens, UniProt Q16539)
protein kinases (human kinome) (Homo sapiens, UniProt Q16539), sequence (Q16539 whole entry): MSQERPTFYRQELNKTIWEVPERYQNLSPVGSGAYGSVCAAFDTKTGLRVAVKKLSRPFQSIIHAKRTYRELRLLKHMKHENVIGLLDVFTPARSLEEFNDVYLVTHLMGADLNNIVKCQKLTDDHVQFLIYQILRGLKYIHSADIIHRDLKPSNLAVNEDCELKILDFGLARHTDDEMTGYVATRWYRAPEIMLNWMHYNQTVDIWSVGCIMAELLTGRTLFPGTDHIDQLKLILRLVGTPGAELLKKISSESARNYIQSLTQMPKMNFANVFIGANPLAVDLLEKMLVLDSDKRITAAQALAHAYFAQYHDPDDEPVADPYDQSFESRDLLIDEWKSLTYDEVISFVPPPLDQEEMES

[12] = molecular target: T3, protein kinases (human kinome) (Homo sapiens, UniProt O14965)
T3 sequence (O14965 1-403): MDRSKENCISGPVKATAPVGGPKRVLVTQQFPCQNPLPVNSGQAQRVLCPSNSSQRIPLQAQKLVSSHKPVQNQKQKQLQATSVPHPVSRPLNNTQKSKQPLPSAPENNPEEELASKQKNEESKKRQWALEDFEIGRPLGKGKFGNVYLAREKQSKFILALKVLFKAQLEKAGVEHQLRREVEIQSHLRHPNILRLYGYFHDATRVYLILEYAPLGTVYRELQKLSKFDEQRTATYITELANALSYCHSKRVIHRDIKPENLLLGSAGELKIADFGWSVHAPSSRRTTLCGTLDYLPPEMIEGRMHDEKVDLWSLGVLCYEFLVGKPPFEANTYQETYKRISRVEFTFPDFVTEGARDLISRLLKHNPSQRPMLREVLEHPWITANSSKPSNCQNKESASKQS

[13] = molecular target: protein kinases (human kinome) (Homo sapiens, UniProt P06493); conditions: CDK1 P06493
protein kinases (human kinome) (Homo sapiens, UniProt P06493), sequence (P06493 whole entry): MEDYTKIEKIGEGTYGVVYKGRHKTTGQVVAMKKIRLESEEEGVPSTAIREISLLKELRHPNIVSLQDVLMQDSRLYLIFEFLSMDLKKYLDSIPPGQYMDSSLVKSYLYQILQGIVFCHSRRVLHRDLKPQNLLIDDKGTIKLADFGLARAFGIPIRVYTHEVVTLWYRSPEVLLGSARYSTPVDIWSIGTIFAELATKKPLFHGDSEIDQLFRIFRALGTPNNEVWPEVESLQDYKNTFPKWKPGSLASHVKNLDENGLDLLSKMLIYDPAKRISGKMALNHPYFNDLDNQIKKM

[14] = molecular target: protein kinases (human kinome) (Homo sapiens, UniProt P24941)
[15] = molecular target: protein kinases (human kinome) (Homo sapiens, UniProt P45984); conditions: MAPK9 P45984-1, experiment wp104
protein kinases (human kinome) (Homo sapiens, UniProt P45984), sequence (P45984 whole entry): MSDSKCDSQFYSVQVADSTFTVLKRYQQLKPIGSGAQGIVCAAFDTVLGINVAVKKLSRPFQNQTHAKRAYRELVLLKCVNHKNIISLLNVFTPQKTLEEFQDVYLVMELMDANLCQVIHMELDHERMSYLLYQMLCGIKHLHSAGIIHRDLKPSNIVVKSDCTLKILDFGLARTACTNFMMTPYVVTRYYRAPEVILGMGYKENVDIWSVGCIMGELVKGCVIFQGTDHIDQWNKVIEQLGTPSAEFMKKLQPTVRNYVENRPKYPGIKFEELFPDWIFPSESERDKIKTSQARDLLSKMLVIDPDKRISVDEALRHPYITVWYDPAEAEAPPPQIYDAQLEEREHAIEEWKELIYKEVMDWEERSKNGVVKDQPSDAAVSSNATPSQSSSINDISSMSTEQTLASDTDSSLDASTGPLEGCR

[16] = molecular target: protein kinases (human kinome) (Homo sapiens, UniProt P50613); conditions: for logFC: CDK7 (P50613) protein abundance, degrader vs DMSO, down; for logFC CDK7: CDK7 P50613, experiment wp104
protein kinases (human kinome) (Homo sapiens, UniProt P50613), sequence (P50613 whole entry): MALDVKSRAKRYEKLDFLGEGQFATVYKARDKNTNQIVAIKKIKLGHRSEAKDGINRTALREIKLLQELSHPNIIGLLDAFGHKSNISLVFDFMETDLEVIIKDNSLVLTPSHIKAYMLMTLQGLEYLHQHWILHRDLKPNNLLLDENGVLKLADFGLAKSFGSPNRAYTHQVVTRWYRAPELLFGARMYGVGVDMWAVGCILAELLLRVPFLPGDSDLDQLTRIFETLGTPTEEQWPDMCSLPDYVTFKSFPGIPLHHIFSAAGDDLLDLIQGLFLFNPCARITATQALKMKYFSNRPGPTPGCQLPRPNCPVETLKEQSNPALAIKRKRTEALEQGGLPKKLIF

[17] = molecular target: protein kinases (human kinome) (Homo sapiens, UniProt P53779); conditions: for logFC MAPK10 (P53779): direction of change down; for logFC: MAPK10 (P53779), experiment wp104
protein kinases (human kinome) (Homo sapiens, UniProt P53779), sequence (P53779 whole entry): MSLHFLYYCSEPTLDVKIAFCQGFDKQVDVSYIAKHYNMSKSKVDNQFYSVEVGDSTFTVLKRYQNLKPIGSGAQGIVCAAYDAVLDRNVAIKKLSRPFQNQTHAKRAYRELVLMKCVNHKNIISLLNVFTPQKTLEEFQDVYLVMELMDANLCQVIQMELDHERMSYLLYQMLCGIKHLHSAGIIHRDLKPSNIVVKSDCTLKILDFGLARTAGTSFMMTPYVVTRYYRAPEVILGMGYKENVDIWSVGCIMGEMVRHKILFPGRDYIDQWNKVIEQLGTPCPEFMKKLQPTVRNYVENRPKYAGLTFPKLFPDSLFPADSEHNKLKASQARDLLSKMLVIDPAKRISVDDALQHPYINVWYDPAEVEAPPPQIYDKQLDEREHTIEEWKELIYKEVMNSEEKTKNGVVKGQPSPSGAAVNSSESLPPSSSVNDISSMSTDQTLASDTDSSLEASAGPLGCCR

[18] = molecular target: protein kinases (human kinome) (Homo sapiens, UniProt Q00534); conditions: for logFC CDK6: CDK6 (Q00534), direction down; for logFC of CDK6 (Q00534): down
protein kinases (human kinome) (Homo sapiens, UniProt Q00534), sequence (Q00534 whole entry): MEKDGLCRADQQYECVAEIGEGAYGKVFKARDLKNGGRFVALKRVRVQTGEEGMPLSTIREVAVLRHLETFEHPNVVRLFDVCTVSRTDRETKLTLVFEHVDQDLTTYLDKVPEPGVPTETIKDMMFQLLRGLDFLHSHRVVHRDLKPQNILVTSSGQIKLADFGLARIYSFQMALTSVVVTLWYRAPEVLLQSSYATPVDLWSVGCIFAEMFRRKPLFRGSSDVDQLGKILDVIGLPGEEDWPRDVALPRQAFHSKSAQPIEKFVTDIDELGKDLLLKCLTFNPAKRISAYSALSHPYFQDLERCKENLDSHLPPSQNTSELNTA

[19] = molecular target: protein kinases (human kinome) (Homo sapiens, UniProt Q00535); conditions: for logFC of CDK5: Accession Q00535; for logFC CDK5 (Q00535): direction of change down
protein kinases (human kinome) (Homo sapiens, UniProt Q00535), sequence (Q00535 whole entry): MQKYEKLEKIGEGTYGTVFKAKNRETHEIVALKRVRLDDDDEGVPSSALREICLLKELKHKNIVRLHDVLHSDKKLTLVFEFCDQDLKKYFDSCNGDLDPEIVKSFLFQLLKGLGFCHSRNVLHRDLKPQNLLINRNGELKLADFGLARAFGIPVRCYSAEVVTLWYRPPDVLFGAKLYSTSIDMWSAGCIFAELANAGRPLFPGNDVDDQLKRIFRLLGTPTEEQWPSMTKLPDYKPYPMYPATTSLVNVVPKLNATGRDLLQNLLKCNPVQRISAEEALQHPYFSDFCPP

[20] = molecular target: protein kinases (human kinome) (Homo sapiens, UniProt Q00537); conditions: for logFC of CDK17: Accession Q00537; for logFC CDK17 (Q00537): direction of change down
protein kinases (human kinome) (Homo sapiens, UniProt Q00537), sequence (Q00537 whole entry): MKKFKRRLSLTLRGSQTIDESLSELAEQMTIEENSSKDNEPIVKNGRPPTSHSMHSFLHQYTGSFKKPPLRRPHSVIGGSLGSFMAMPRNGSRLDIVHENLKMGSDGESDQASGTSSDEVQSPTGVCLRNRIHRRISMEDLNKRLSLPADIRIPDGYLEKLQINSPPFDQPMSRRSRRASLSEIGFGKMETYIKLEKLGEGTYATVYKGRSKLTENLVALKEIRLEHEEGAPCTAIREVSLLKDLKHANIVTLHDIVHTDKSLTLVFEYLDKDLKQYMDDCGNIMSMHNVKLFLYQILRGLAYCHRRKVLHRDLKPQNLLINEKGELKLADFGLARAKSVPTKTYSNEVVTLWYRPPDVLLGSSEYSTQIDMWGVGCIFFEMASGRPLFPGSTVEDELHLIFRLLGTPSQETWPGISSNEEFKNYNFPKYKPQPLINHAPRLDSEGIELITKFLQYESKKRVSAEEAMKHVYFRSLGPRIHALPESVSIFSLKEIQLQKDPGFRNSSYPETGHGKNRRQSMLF

Nc1ncnc2c1c(-c1ccc(Oc3ccccc3)cc1)nn2[C@H]1CC[C@H](N2CCN(CCCCCCNC(=O)COc3cccc4c3C(=O)N(C3CCC(=O)NC3=O)C4=O)CC2)CC1 (some centres unmarked) [SB1.G.200]
logFC [1]: −1.403
logFC LATS1 [1]: −1.403
logFC of CSK ([2]; Accession P41240): −3.011
logFC CSK ([2]; CSK (P41240), down): −3.011
logFC ([3]; ABL2 (P42684) protein abundance, degrader vs DMSO, down): −2.103
logFC ABL2 (P42684) ([3]; experiment wp071): −2.103
logFC [4]: −0.76
logFC CSNK1E [4]: −0.76
logFC BLK ([5]; BLK (P51451), direction down, experiment wp071): −1.525
logFC of BLK (P51451) ([5]; Experiment wp071, down): −1.525
logFC LIMK1 ([6]; direction down, experiment wp071): −0.775
logFC LIMK1 ([6]; experiment wp071, down): −0.775
logFC ([7]; MAP2K5 (Q13163-1)): −1.433
logFC of MAP2K5 (Q13163-1) [7]: −1.433
logFC ABL1 ([8]; ABL1 (P00519-2), experiment wp071): −1.646
logFC FYN ([8]; Accession P06241-2, experiment wp071): −1.777
logFC of SRC ([8]; Accession P12931-2, experiment wp071): −2.174
logFC FYN ([8]; FYN P06241-2, experiment wp071): −1.777
logFC LCK ([8]; LCK, accession P06239-3, experiment wp071, direction of change down): −1.275
logFC ([8]; SRC (P12931-2) protein abundance, degrader vs DMSO, down): −2.174
logFC ABL1 (P00519-2) ([8]; experiment wp071): −1.646
logFC LCK (P06239-3) ([8]; experiment wp071, direction of change down): −1.275

CC(C)(C)c1cc(NC(=O)Nc2ccc(Oc3ccnc(C(=O)NCCOCCOCCNC(=O)CNc4cccc5c4C(=O)N(C4CCC(=O)NC4=O)C5=O)c3)cc2F)n(-c2ccc3ncccc3c2)n1 (centres unmarked) [TL13.178]
logFC MAST3 (O60307) ([9]; direction of change down): −0.4852
logFC MAST3 ([9]; protein MAST3 (O60307), down): −0.4852
logFC CDK4 (P11802) ([10]; experiment wp081): −0.5762
logFC LIMK1 ([6]; direction down, experiment wp081): −0.3359
logFC LIMK1 ([6]; experiment wp081, down): −0.3359
logFC ([11]; MAPK14 (Q16539) protein abundance, degrader vs DMSO, down): −0.5659
logFC MAPK14 ([11]; MAPK14, accession Q16539, experiment wp081, direction of change down): −0.5659
logFC MAP3K20 (Q9NYL2-2) ([8]; Experiment wp081): −1.407
logFC MAPK14 ([8]; MAPK14, accession Q16539-2, experiment wp081, direction of change down): −0.3343
logFC MAPK14 ([8]; MAPK14 Q16539-2, experiment wp081): −0.3343
logFC MAP3K20 (Q9NYL2-2) ([8]; experiment wp081): −1.407

NC(=O)c1c(F)cccc1Nc1nc(NC2CCN(S(=O)(=O)CCNC(=O)CCCCCCCCOc3cccc4c3C(=O)N(C3CCC(=O)NC3=O)C4=O)CC2)ncc1Br (centres unmarked) [TMX.01.160.1]
logFC AURKA (O14965) ([12]; experiment wp104, _0.25): −1.326
logFC AURKA (O14965) ([12]; experiment wp104, _1): −1.466
logFC ([13]; experiment wp104, 0.25): −0.7936
logFC CDK1 ([13]; experiment wp104, 0.25): −0.7936
logFC ([13]; experiment wp104, 1): −0.9413
logFC CDK1 ([13]; experiment wp104, 1): −0.9413
logFC CDK4 (P11802) ([10]; experiment wp104, _0.25): −0.5542
logFC CDK4 (P11802) ([10]; experiment wp104, _1): −0.7676
logFC CDK2 (P24941-1) ([14]; experiment wp104, _0.25): −1.024
logFC CDK2 (P24941-1) ([14]; experiment wp104, _0.25, direction of change down): −1.024
logFC CDK2 (P24941-1) ([14]; experiment wp104, _1): −0.9457
logFC CDK2 (P24941-1) ([14]; experiment wp104, _1, direction of change down): −0.9457
logFC ([15]; _0.25): −1.635
logFC MAPK9 ([15]; _0.25): −1.635
logFC ([15]; _1): −1.496
logFC MAPK9 ([15]; _1): −1.496
logFC ([16]; experiment suffix _0.25): −0.4941
logFC ([16]; experiment suffix _1): −0.5204
logFC CDK7 ([16]; _0.25): −0.4941
logFC CDK7 ([16]; _1): −0.5204
logFC MAPK10 (P53779) ([17]; Experiment wp104_TMX.01.160.1_0.25): −0.5743
logFC MAPK10 (P53779) ([17]; Experiment wp104_TMX.01.160.1_1): −0.5743
logFC ([17]; suffix _0.25): −0.5743
logFC ([17]; suffix _1): −0.5743
logFC CDK6 ([18]; experiment wp104, _0.25): −0.866
logFC CDK6 ([18]; experiment wp104, _1): −0.8425
logFC of CDK6 (Q00534) ([18]; Experiment wp104, _0.25): −0.866
logFC of CDK6 (Q00534) ([18]; Experiment wp104, _1): −0.8425
logFC of CDK5 ([19]; experiment wp104, suffix _0.25): −1.866
logFC of CDK5 ([19]; experiment wp104, suffix _1): −1.827
logFC CDK5 (Q00535) ([19]; experiment wp104, _0.25): −1.866
logFC CDK5 (Q00535) ([19]; experiment wp104, _1): −1.827
logFC of CDK17 ([20]; experiment wp104, suffix _0.25): −0.7788
logFC of CDK17 ([20]; experiment wp104, suffix _1): −0.6817
logFC CDK17 (Q00537) ([20]; experiment wp104, _0.25): −0.7788
logFC CDK17 (Q00537) ([20]; experiment wp104, _1): −0.6817
logFC MAPK8 (P45983-4) ([8]; Experiment wp104, _0.25): −0.3338
logFC MAPK8 (P45983-4) ([8]; Experiment wp104, _1): −0.476
logFC MAPK8 ([8]; experiment wp104, _0.25): −0.3338
logFC MAPK8 ([8]; experiment wp104, _1): −0.476
logFC CDK16 (Q00536-2) ([8]; experiment wp104, 0.25): −0.8646
logFC CDK16 (Q00536-2) ([8]; experiment wp104, 1): −0.6009
logFC CDK16 (Q00536-2) ([8]; experiment wp104, suffix _0.25): −0.8646
logFC CDK16 (Q00536-2) ([8]; experiment wp104, suffix _1): −0.6009

Reference: US20240269139A1, “COMPOUNDS FOR TARGETED PROTEIN DEGRADATION OF KINASES” (DANA-FARBER CANCER INSTITUTE, INC., priority 2020, published 2024)
